According to US5955440A, “Macrolide LHRH antagonists” (Abbott Laboratories, priority 1998, dated 1999):

How the values were obtained:
[1] = target: T1, LHRH rat pituitary receptor (Rattus norvegicus, UniProt P30969); experiment: LHRH rat pituitary receptor binding (pKI); conditions: negative logarithm of the equilibrium dissociation constants; for Ki: Table 1, read-out: receptor binding affinity (pKI) (converted)
T1 construct: from tissue; host or cells: rat pituitary
T1 sequence (P30969 1-327): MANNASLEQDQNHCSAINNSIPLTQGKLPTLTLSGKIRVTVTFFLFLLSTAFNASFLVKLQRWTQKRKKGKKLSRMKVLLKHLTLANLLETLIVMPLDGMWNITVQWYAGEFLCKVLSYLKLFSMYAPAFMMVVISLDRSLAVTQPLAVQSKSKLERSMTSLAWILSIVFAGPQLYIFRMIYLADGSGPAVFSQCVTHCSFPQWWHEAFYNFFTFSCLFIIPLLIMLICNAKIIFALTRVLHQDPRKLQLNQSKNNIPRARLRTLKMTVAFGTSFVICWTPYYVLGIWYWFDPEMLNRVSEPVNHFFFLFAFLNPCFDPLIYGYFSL
Description: (§1) Representative compounds of the present invention were evaluated in in vitro tests for LHRH rat pituitary receptor binding (pKI) and for LH inhibition from rat pituitary cells for antagonist potency (pA2). The tests employed the methods detailed in F. Haviv, et al. J. Med. Chem., 32: 2340-2344 (1989). The receptor binding affinity (pKI) is the negative logarithm of the equilibrium dissociation constants.

rat pituitary cells = target: T2, rat pituitary cells (Rattus norvegicus, UniProt P30969); experiment: LH inhibition from rat pituitary cells, antagonist potency (pA2); assay type: cell-based; conditions: negative log of antagonist concentration shifting the leuprolide response curve to two-fold higher concentration, Table 2
T2 construct: endogenous in cells; host or cells: rat pituitary cells
T2 sequence (P30969 1-327): T1 sequence (P30969 1-327)
Description: as §1
The pA2 value is the negative logarithm of the concentration of antagonist which shifts the response curve produced by the agonist leuprolide to two-fold higher concentration. Leuprolide is the LHRH agonist having the structure pyro-Glu^1 -His^2 -Trp^3 -Ser^4 -Tyr^5 -D-Leu^6 -Leu^7 -Arg^8 -Pro^9 -NHEt and is disclosed and claimed in U.S. Pat. No. 4,005,063. Typically pA2 values of 7.0 or greater are indicative of good LHRH antagonist potency.

Row | Ki [1] [nM] | Kb (rat pituitary cells) [nM] | receptor binding affinity (pKI) ([1]; Table 1) | Structure (SMILES)
1 | 4.47 | 30.2 | – | CC[C@H]1OC(=O)[C@H](C)[C@@H](O[C@H]2C[C@@](C)(OC)[C@@H](O)[C@H](C)O2)[C@H](C)[C@@H](O[C@@H]2O[C@H](C)C[C@H](N(C)C(C)C)[C@H]2O)[C@](C)(OC)C[C@@H](C)C(=O)[C@H](C)[C@H]2N(CCc3ccc(Cl)cc3)C(=O)O[C@]12C [Example 22, 3'-N-Desmethyl-3'-N-isopropyl-11-deoxy-11-[carboxy-(4-chlorophenethylamino)]-6-O-methyl-erythromycin A 11,12-(cyclic carbamate)]
2 | 3.98 | 32.4 | – | CCCN(C)[C@H]1C[C@@H](C)O[C@@H](O[C@@H]2[C@@H](C)[C@H](O[C@H]3C[C@@](C)(OC)[C@@H](O)[C@H](C)O3)[C@@H](C)C(=O)O[C@H](CC)[C@@]3(C)OC(=O)N(CCc4ccc(Cl)c(F)c4)[C@@H]3[C@@H](C)C(=O)[C@H](C)C[C@@]2(C)OC)[C@@H]1O [Example 16, 3'-N-Desmethyl-3'-N-n-propyl-11-deoxy-11-[carboxy-(4-chloro-3-fluorophenethylamino)]-6-O-methyl-erythromycin A 11,12-(cyclic carbamate)]
3 | 6.17 | 55 | – | CC[C@H]1OC(=O)[C@H](C)[C@@H](O[C@H]2C[C@@](C)(OC)[C@@H](O)[C@H](C)O2)[C@H](C)[C@@H](O[C@@H]2O[C@H](C)C[C@H](N(C)CC)[C@H]2O)[C@](C)(OC)C[C@@H](C)C(=O)[C@H](C)[C@H]2N(CCc3ccc(Cl)cc3)C(=O)O[C@]12C [Example 21, 3'-N-Desmethyl-3'-N-ethyl-11-deoxy-11-[carboxy-(4-chlorophenethylamino)]-6-O-methyl-erythromycin A 11,12-(cyclic carbamate)]
4 | 0.813 | 0.794 | – | CC[C@H]1OC(=O)[C@H](C)[C@@H](O[C@H]2C[C@@](C)(OC)[C@@H](O)[C@H](C)O2)[C@H](C)[C@@H](O[C@@H]2O[C@H](C)C[C@H](N(C)C3CCCC3)[C@H]2O)[C@](C)(OC)C[C@@H](C)C(=O)[C@H](C)[C@H]2N(CCc3ccc(Cl)c(Cl)c3)C(=O)O[C@]12C [Example 1, 3'-N-Desmethyl-3'-N-cyclopentyl-11-deoxy-11-[carboxy-(3,4-dichlorophenethylamino)]-6-O-methyl-erythromycin A 11,12-(cyclic carbamate)]
5 | 6.76 | 50.1 | – | CC[C@H]1OC(=O)[C@H](C)[C@@H](O[C@H]2C[C@@](C)(OC)[C@@H](O)[C@H](C)O2)[C@H](C)[C@@H](O[C@@H]2O[C@H](C)C[C@H](N(C)C3CCCC3)[C@H]2O)[C@](C)(OC)C[C@@H](C)C(=O)[C@H](C)[C@H]2N(CCc3ccc(Cl)cc3)C(=O)O[C@]12C [Example 23, 3'-N-Desmethyl-3'-N-cyclopentyl-11-deoxy-11-[carboxy-(4-chlorophenethylamino)]-6-O-methyl-erythromycin A 11,12-(cyclic carbamate)]
6 | 3.72 | – | – | CC[C@H]1OC(=O)[C@H](C)[C@@H](O[C@H]2C[C@@](C)(OC)[C@@H](O)[C@H](C)O2)[C@H](C)[C@@H](O[C@@H]2O[C@H](C)C[C@H](N(C)CC3CC3)[C@H]2O)[C@](C)(OC)C[C@@H](C)C(=O)[C@H](C)[C@H]2N(CC3(c4ccc(Cl)c(Cl)c4)CC3)C(=O)O[C@]12C [Example 59, 3'-N-Desmethyl-3'-N-cyclopropylmethyl-11-deoxy-11-[carboxy-(α,α-cyclopropyl-3,4-dichlorophenethylamino)]-6-O-methyl-erythromycin A 11,12-(cyclic carbamate)]
7 | 5.13 | – | – | CC[C@H]1OC(=O)[C@H](C)[C@@H](O[C@H]2C[C@@](C)(OC)[C@@H](O)[C@H](C)O2)[C@H](C)[C@@H](O[C@@H]2O[C@H](C)C[C@H](N(C)Cc3ccc([N+](=O)[O-])o3)[C@H]2O)[C@](C)(OC)C[C@@H](C)C(=O)[C@H](C)[C@H]2N(CCc3ccc(Cl)c(Cl)c3)C(=O)O[C@]12C [Example 68, 3'-N-Desmethyl-3'-N-[5-nitro-2-furylmethyl]-11-deoxy-11-[carboxy-(3,4-dichlorophenethylamino)]-6-O-methyl-erythromycin A 11,12-(cyclic carbamate)]
8 | 3.16 | – | – | CC[C@H]1OC(=O)[C@H](C)[C@@H](O[C@H]2C[C@@](C)(OC)[C@@H](O)[C@H](C)O2)[C@H](C)[C@@H](O[C@@H]2O[C@H](C)C[C@H](N(C)Cc3ccc(N(C)C)c4ccccc34)[C@H]2O)[C@](C)(OC)C[C@@H](C)C(=O)[C@H](C)[C@H]2N(CCc3ccc(Cl)c(Cl)c3)C(=O)O[C@]12C [Example 74, 3'-N-Desmethyl-3'-N-(4-dimethylamino-1-napthylmethyl)-11-deoxy-11-[carboxy-(3,4-dichlorophenethylamino)]-6-O-methyl-erythromycin A 11,12-(cyclic carbamate)]
9 | 5.13 | – | – | CCCN(C)[C@H]1C[C@@H](C)O[C@@H](O[C@@H]2[C@@H](C)[C@H](O[C@H]3C[C@@](C)(OC)[C@@H](O)[C@H](C)O3)[C@@H](C)C(=O)O[C@H](CC)[C@@]3(C)OC(=O)N(CCc4ccc(OC)cc4)[C@@H]3[C@@H](C)C(=O)[C@H](C)C[C@@]2(C)OC)[C@@H]1O [Example 39, 3'-N-Desmethyl-3'-N-propyl-11-deoxy-11-[carboxy-(4-methoxyphenethylamino)]-6-O-methyl-erythromycin A 11,12-(cyclic carbamate)]
10 | 7.94 | – | – | CC[C@H]1OC(=O)[C@H](C)[C@@H](O[C@H]2C[C@@](C)(OC)[C@@H](O)[C@H](C)O2)[C@H](C)[C@@H](O[C@@H]2O[C@H](C)C[C@H](N(C)C3CCC3)[C@H]2O)[C@](C)(OC)C[C@@H](C)C(=O)[C@H](C)[C@H]2N(CCc3ccc(Cl)c(F)c3)C(=O)O[C@]12C [Example 52, 3'-N-Desmethyl-3'-N-cyclobutyl-11-deoxy-11-[carboxy-(4-chloro-3-fluorophenethylamino)]-6-O-methyl-erythromycin A 11,12-(cyclic carbamate)]
11 | 4.07 | – | – | CC[C@H]1OC(=O)[C@H](C)[C@@H](O[C@H]2C[C@@](C)(OC)[C@@H](O)[C@H](C)O2)[C@H](C)[C@@H](O[C@@H]2O[C@H](C)C[C@H](N(C)CCc3ccccn3)[C@H]2O)[C@](C)(OC)C[C@@H](C)C(=O)[C@H](C)[C@H]2N(CCc3ccc(F)c(Cl)c3)C(=O)O[C@]12C [Example 90, 3'-N-Desmethyl-3'-N-(2-pyridyl)ethyl-11-deoxy-11-[carboxy-(3-chloro-4-fluorophenethylamino)]-6-O-methyl-erythromycin A 11,12-(cyclic carbamate)]
12 | 3.55 | – | – | CCCN(C)[C@H]1C[C@@H](C)O[C@@H](O[C@@H]2[C@@H](C)[C@H](O[C@H]3C[C@@](C)(OC)[C@@H](O)[C@H](C)O3)[C@@H](C)C(=O)O[C@H](CC)[C@@]3(C)OC(=O)N(CCc4ccc(OC)c(Br)c4)[C@@H]3[C@@H](C)C(=O)[C@H](C)C[C@@]2(C)OC)[C@@H]1O [Example 43, 3'-N-Desmethyl-3'-N-propyl-11-deoxy-11-[carboxy-(3-bromo-4-methoxyphenethylamino)]-6-O-methyl-erythromycin A 11,12-(cyclic carbamate)]
13 | 1.74 | – | – | CC[C@H]1OC(=O)[C@H](C)[C@@H](O[C@H]2C[C@@](C)(OC)[C@@H](O)[C@H](C)O2)[C@H](C)[C@@H](O[C@@H]2O[C@H](C)C[C@H](N(C)C(C)C)[C@H]2O)[C@](C)(OC)C[C@@H](C)C(=O)[C@H](C)[C@H]2N(CC3(c4ccc(Cl)c(Cl)c4)CC3)C(=O)O[C@]12C [Example 10, 3'-N-Desmethyl-3'-N-isopropyl-11-deoxy-11-[carboxy-(α,α-cyclopropyl-3,4-dichlorophenethylamino)]-6-O-methyl-erythromycin A 11,12-(cyclic carbamate)]
14 | 7.94 | – | – | CC[C@H]1OC(=O)[C@H](C)[C@@H](O[C@H]2C[C@@](C)(OC)[C@@H](O)[C@H](C)O2)[C@H](C)[C@@H](O[C@@H]2O[C@H](C)C[C@H](N(C)C3CCCCC3)[C@H]2O)[C@](C)(OC)C[C@@H](C)C(=O)[C@H](C)[C@H]2N(CC3(c4ccc(Cl)c(Cl)c4)CC3)C(=O)O[C@]12C [Example 13, 3'-N-Desmethyl-3'-N-cyclohexyl-11-deoxy-11-[carboxy-(α,α-cyclopropyl-3,4-dichlorophenethylamino)]-6-O-methyl-erythromycin A 11,12-(cyclic carbamate)]
15 | – | – | 8.46 | CC[C@H]1OC(=O)[C@H](C)[C@@H](O[C@H]2C[C@@](C)(OC)[C@@H](O)[C@H](C)O2)[C@H](C)[C@@H](O[C@@H]2O[C@H](C)C[C@H](N(C)CCCCc3ccncc3)[C@H]2O)[C@](C)(OC)C[C@@H](C)C(=O)[C@H](C)[C@H]2N(CCc3ccc(F)c(Cl)c3)C(=O)O[C@]12C [Example 83, 3'-N-Desmethyl-3'-N-[4-(4-pyridyl)butyl]-11-deoxy-11-[carboxy-(3-chloro-4-fluorophenethylamino)]-6-O-methyl-erythromycin A 11,12-(cyclic carbamate)]
